Laboratory results reported in PMC7515829, “HKDC1 C-terminal based peptides inhibit extranodal natural killer/T-cell lymphoma by modulation of mitochondrial function and EBV suppression” (Leukemia, 2020).

Columns and labels:
HKDC1/VDAC1 [1] = target: T1, HKDC1/VDAC1 (Homo sapiens, UniProt P21796); assay: IP/WB association of HKDC1 with VDAC1 in HMECs; assay type: cell-based; set-up: endogenous in cells; settings: 0.5 µM peptide, 6 h, compared with CTL group, n = 5 (Fig S3)
Experimental: (§1) Immunoprecipitation (IP) and Western Blotting (WB). Cell lysates were pre-cleared by pre-immune IgG plus Protein A agarose beads for 2 hours, and the supernatants were immunoprecipitated by the indicated antibodies and a 50% slurry of Protein A Agarose beads overnight at 4 °C (9). After washing with buffer containing 50 mM Tris, pH 7.5, 150 mM NaCl, 1% NP-40, and 0.5% deoxycholate with protease inhibitors, proteins were released, separated on 10% SDS-PAGE gels, blotted by primary antibodies, and then simultaneously incubated with the differentially labeled species-specific secondary antibodies, anti-RABBIT IRDye™ 800CW (green) and anti-MOUSE (or goat) ALEXA680 (red). Membranes were scanned and quantitated by the ODYSSEY Infrared Imaging System (LI-COR, NE) (10).
(§2) Figure S3. Peptide Tf-D-HKC8 dissociates HKDC1 from VDAC1 in cancer cells, but little effect on normal cells. Different cells, including HMECS, HANK1 and SW480, were treated by either control (CTL) or Tf-D-HKC8 peptide (0.5µM) for 6 hours, and the cells were used for IP/WB analysis. (a) Representative western blotting bands for IP/WB. (b) Protein quantitation for IP/WB for (a), n=5. *, P<0.05, vs CTL group. Results were expressed as mean ± SEM.

SNK6 cells [2] = assay: Intracellular ATP level (luciferin/luciferase); assay type: cell-based, human; settings: 0.5 µM peptide, 6 h, vs CTL, n = 5 (Fig. 4g)
Experimental: Measurement of mitochondrial function. Intracellular ATP level was determined using the luciferin/luciferase-induced bioluminescence system. An ATP standard curve was generated at concentrations of 10^-12-10^-3M, and intracellular ATP levels were calculated and expressed as nmol/mg protein. Mitochondrial membrane potential (Δψm) was measured using TMRE (from Molecular Probes T-669) staining. A 600μM T-669 stock solution was prepared using DMSO. Cells were grown on coverslips and immersed in 600nM TMRE for 20 min at 37°C to load them with dye. The labeling medium was then aspirated and the cells were immersed in 150nM TMRE to maintain an equal distribution of the fluorophore. The coverslips were mounted with live cells onto confocal microscopes to image the cells using 548nm excitation/573nm emission filters, and the intensity of TMRE fluorescence was measured using Image J software. Data from 10-20 cells were collected for each experimental condition and mean values of fluorescence intensity ± SEM were calculated (12).

SNK6 cells [3] = assay: Cell invasion assay; assay type: cell-based, human; settings: 0.5 µM peptide, 6 h, Matrigel, vs CTL, n = 5 (Fig. 5c)
Experimental: Migration and invasion assays. Cell migration and invasion assays were performed in 24-well chemotaxis plates with an 8μm polycarbonate filter membrane. The plates were coated with 20μg Matrigel for invasion assays and uncoated for migration assays. Invasion and migration were expressed as the number of migrated cells bound per microscopic field and averaged from at least four fields per assay in at least 4 experiments (18, 19).

HKDC1/VDAC1 [4] = target: T1, HKDC1/VDAC1; assay: IP/WB association of HKDC1 with VDAC1 in SW480 cells; assay type: cell-based; set-up: endogenous in cells; settings: 0.5 µM peptide, 6 h, compared with CTL group, n = 5 (Fig S3)
Experimental: as §1, §2

HKDC1/VDAC1 [5] = target: T1, HKDC1/VDAC1; assay: IP/WB HKDC1 binding with VDAC1 in xenograft tumor tissue; assay type: in vivo, mouse; set-up: from tissue; host or cells: SNK6 xenograft tumor tissue from Balb/c athymic nude mice; settings: SNK6 xenograft, nude mice; intratumoral 50 µM peptide every 2 days from day ~18; tissue day 50; IP/WB vs CTL; n = 5
Experimental: as §1
Biomedical analysis of tumor tissues.

HKDC1/VDAC1 [6] = target: T1, HKDC1/VDAC1; assay: IP/WB association of HKDC1 with VDAC1 in HANK1 cells; assay type: cell-based; set-up: endogenous in cells; settings: 0.5 µM peptide, 6 h, compared with CTL group, n = 5 (Fig S3)
Experimental: as §1, §2

SNK6 cells [7] = assay: γH2AX formation (western blot); assay type: cell-based, human; settings: 0.5 µM peptide, 6 h, vs CTL, n = 5 (Fig. 3d)
Experimental: Measurement of DNA breaks. 8-OHdG formation was measured using an OxiSelect™ Oxidative DNA Damage ELISA Kit (Cat No. STA320, from Cell Biolabs Inc.) per manufacturers’ instructions. The formation of γH2AX was measured from nuclear extracts by western blotting using H2AX as the input control (8).

T1 sequence (P21796 2-283 limits assumed): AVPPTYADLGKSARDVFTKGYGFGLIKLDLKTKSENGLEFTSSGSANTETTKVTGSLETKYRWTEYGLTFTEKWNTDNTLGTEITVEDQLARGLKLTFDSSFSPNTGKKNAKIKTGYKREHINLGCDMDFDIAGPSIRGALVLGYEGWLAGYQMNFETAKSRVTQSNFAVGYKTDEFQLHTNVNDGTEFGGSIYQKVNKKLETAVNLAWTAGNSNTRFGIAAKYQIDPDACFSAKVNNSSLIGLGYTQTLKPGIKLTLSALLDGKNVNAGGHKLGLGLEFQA

Substance | association of HKDC1 with VDAC1 in HMECs (HKDC1/VDAC1 [1]) | intracellular ATP generation (SNK6 cells [2]) [%] | cell invasion (SNK6 cells [3]) [%] | association of HKDC1 with VDAC1 in SW480 cells (HKDC1/VDAC1 [4]) [%] | HKDC1 binding with VDAC1 in tumor (HKDC1/VDAC1 [5]) [%] | association of HKDC1 with VDAC1 in HANK1 cells (HKDC1/VDAC1 [6]) [%] | γH2AX formation (SNK6 cells [7]) [%]
HAIYPRH-LQQAQKEN [Tf-D-HKC8] | little effect | 30 | 29 | 67 | 38 | 34 | 189
HAIYPRH-ITAVAKRLQQAQKEN [Tf-D-HKC15] |  | 61 | 61 |  | 71 |  | 144
